Reference: US20100069400A1, “METHODS FOR TREATING INFLAMMATION AND RELATED CONDITIONS” (Ore Pharmaceuticals Inc., priority 2008, published 2010)

Legend:
IL-10 = assay: LPS-induced plasma IL-10, bead-based immunoassay (Luminex); type: in vivo, mice; details: all time points measured (2, 4, 6, 24 hours post-LPS), most pronounced at 2 and 4 hours; mouse plasma
Description: (§1) The intriguing bi-phasic modulation of NF-κB activation described in Example 1 was further investigated by repeating the LPS induction experiment and performing subsequent imaging analysis at 0 hour and 2, 4, 6 and 24 hours post-LPS treatment. Moreover, blood samples were collected at each of the timepoints and plasma was prepared for evaluation of effects of irindalone on quantities of circulating cytokines. […] Specifically, irindalone suppressed LPS-induced pro-inflammatory cytokines eotaxin (FIG. 3A) and TNF-α (FIG. 3B) at the 2-hour time point and IL-1α at both 2 hours and 6 hours post-LPS injection (FIG. 3C).

IL-1α = assay: LPS-induced plasma IL-1α, bead-based immunoassay (Luminex); type: in vivo, mice; details: mouse plasma
Description: as §1

NF-κB [1] = assay: in vivo imaging of LPS-induced NF-κB:luciferase reporter activation in NF-κB:LUC transgenic mice; details: for LPS-induced NF-κB reporter (fold change from 0 hour), Example 1: 1 or 10 mg/kg p.o. one hour prior to sLPS 2.5 mg/kg i.v., whole body imaging; for LPS-induced NF-κB activation, Example 2 (FIG. 2): repeat experiment
Description: Effects of irindalone on rodent physiological processes were evaluated using bio-photonic in vivo imaging. Specifically, this technology was used to investigate temporal and spatial modulation of physiological processes following acute compound administration. Transgenic mice expressing a firefly luciferase reporter driven by a series of promoters that represent a wide spectrum of potential disease states were used. Light emitted by luciferase in the presence of a luciferin substrate was detected and analyzed using a highly sensitive CCD imaging system. Mice were anesthetized and imaged at the indicated time points followed by visual and quantitative analysis based on counting photons of light emitted from specific regions of interest. Observations were followed by confirmatory and additional heuristic studies, including direct measurement of luciferase activity in harvested tissues and organs. As detailed below, the properties of irindalone were analyzed on three distinct transgenic lines, NF-κB:LUC, AP-1:LUC and HO-1:LUC. For this Example, the NF-κB transgenic mouse line was constructed using three NF-κB response elements fused to a firefly luciferase reporter. The effect of acute compound administration on inflammatory and immunomodulatory processes was monitored using activation of the luciferase reporter as a surrogate readout for activation of NF-κB transcription factor. […] For these studies, male mice (n=5 per group) were administered irindalone (0, 1 or 10 mg/kg, p.o.) one hour prior to injection with soluble lipopolysaccharide (sLPS, 2.5 mg/kg, i.v.). Whole body images were obtained prior to drug pretreatment (0 hour time point) and again at 2, 4, and 6 hours post-LPS treatment. […] The intriguing bi-phasic modulation of NF-κB activation described in Example 1 was further investigated by repeating the LPS induction experiment and performing subsequent imaging analysis at 0 hour and 2, 4, 6 and 24 hours post-LPS treatment. Moreover, blood samples were collected at each of the timepoints and plasma was prepared for evaluation of effects of irindalone on quantities of circulating cytokines.

5-HT2A = 5-HT2A (Homo sapiens, UniProt P28223); details: cited from earlier work
HO-1 promoter = assay: CdCl2-induced HO-1:LUC promoter activation in HO-1:LUC transgenic mice; type: in vivo
From the text: The HO-1 luciferase transgenic mouse line was constructed using 15,000 base pairs of the HO-1 promoter fused to a firefly luciferase reporter. The HO-1 promoter is highly responsive to oxidative stress, hypoxia and other stimuli that influence the oxidative state of the animal. Increased expression of the HO-1 pathway limits tissue damage in response to a wide variety of proinflammatory stimuli associated with oxidative stress including hypoxia, hyperoxia, cytokines, nitric oxide (NO), heavy metals, ultraviolet-A radiation, heat shock, shear stress, hydrogen peroxide, and thiol (—SH)-reactive substances, endotoxin, allograft rejection, etc. This promoter region has several enhancer sequences that confer responsiveness to the wide set of stimuli mentioned above. In this mouse model, luciferase expression is an indicator of the induction of the HO-1 promoter/gene expression. In order to assess the ability of irindalone to modulate the oxidative state of mice stressed with cadmium chloride (CdCl2), male mice (n=5 per group) were dosed with irindalone (0, 1 or 10 mg/kg, p.o.) one hour prior to injection with CdCl2 (2 mg/kg, i.v.). Whole body images were obtained prior to irindalone pretreatment (0 hour) and again at 4, 6, and 24 hours post-CdCl2 treatment. Irindalone suppressed CdCl2-induced luciferase expression (FIG. 6). […] Additional anatomical regions also posted trends in suppression at early time points.

TNF-α = assay: LPS-induced plasma TNF-α, bead-based immunoassay (Luminex); type: in vivo, mice; details: 2-hour time point post-LPS; mouse plasma
Description: as §1

histamine H1 receptor = histamine H1 receptor (Homo sapiens, UniProt P35367); details: compared with its 5-HT2A affinity; cited from earlier work
NF-κB [2] = assay: LPS-induced NF-κB activation in harvested organs and tissues (luciferase/protein assay) of NF-κB:LUC transgenic mice; type: in vivo; details: 10 mg/kg p.o. one hour prior to LPS 2.5 mg/kg i.v.; 2 hours post-LPS; most pronounced changes in visceral fat, gastrointestinal tract and brain
Description: To determine whether these effects can be localized to a particular tissue or organ system, additional experimentation was performed (similar in design to that as described in Example 1). For these studies, male mice (n=5 per group) were administered irindalone (0 and 10 mg/kg, p.o.) one hour prior to injection with LPS (2.5 mg/kg, i.v.). Whole body images were obtained prior to drug pretreatment (0 hour) and again at 2 hours post-LPS treatment (data not shown). A broad collection of internal tissues and organs were then removed and snap frozen for further analysis. Specifically, harvested tissues were homogenized, cells were lysed and utilized for luciferase and protein quantification assays to obtain relative units of light/μg protein. Results (FIG. 4) illustrate normalized comparisons between LPS alone versus irindalone+LPS.

AP-1 = assay: TPA-induced AP-1:LUC reporter activation in skin of AP-1:LUC transgenic mice; type: in vivo; details: irindalone 1 and 10 mg/kg p.o. (dose-dependent) or DEX 4.5 mg/kg i.p. one hour prior to topical TPA 10 μg
Description: The AP-1:LUC transgenic line was constructed with four copies of the AP-1 response element fused to a firefly luciferase reporter. […] For the current studies, the backs of mice (n=5 per group) were shaved (area size approximately 1.5×3 cm) and pre-imaged. Mice were administered vehicle (saline), irindalone (dosing at 1 and 10 mg/kg; p.o.) or dexamethasone as a positive control (DEX, 4.5 mg/kg, i.p.) one hour prior to topical application of the phorbol ester 12-O-tetradecanoyl-phorbol-13-acetate (TPA, 0.05 mg/ml in acetone; total dose 10 μg).

IL-13 = assay: plasma IL-13 in normal unstimulated rats, bead-based multiplex immunoassay (Luminex); type: in vivo; details: 1 and 5 mg/kg oral twice daily for 7 days, blood approximately 4 hours after last dose
Description: (§2) The effects of irindalone were also investigated in normal unstimulated rats that were subject to twice-daily oral dosing with irindalone (1 and 5 mg/kg) for 7 consecutive days. Blood was collected approximately 4 hours after administration of the last dose, plasma was prepared and cytokines were measured using a bead-based multiplex immunoassay (Luminex Corp.).

eotaxin = assay: LPS-induced plasma eotaxin, bead-based immunoassay (Luminex); type: in vivo, mice; details: 2-hour time point post-LPS; mouse plasma
Description: as §1

CXCL1 (GRO/KC) = assay: plasma CXCL1 (GRO/KC) in normal unstimulated rats, bead-based multiplex immunoassay (Luminex); type: in vivo; details: 1 and 5 mg/kg oral twice daily for 7 days, blood approximately 4 hours after last dose, not dose-proportionately
Description: as §2

adrenergic receptor al = details: compared with its 5-HT2A affinity; cited from earlier work

Sequence of 5-HT2A (P28223 whole entry, species assumed): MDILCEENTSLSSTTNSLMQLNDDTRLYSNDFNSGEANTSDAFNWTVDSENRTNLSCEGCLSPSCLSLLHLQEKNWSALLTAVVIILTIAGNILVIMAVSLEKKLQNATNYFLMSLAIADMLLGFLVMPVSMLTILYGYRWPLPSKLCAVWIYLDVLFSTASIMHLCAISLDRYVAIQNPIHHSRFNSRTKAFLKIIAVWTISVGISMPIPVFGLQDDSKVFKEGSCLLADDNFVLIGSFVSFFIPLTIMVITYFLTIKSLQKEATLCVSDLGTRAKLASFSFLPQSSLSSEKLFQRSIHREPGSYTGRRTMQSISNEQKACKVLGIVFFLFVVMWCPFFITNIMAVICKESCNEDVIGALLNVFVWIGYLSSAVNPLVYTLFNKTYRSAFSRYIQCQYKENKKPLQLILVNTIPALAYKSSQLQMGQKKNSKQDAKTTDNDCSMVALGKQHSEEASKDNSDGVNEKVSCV
Sequence of histamine H1 receptor (P35367 whole entry, species assumed): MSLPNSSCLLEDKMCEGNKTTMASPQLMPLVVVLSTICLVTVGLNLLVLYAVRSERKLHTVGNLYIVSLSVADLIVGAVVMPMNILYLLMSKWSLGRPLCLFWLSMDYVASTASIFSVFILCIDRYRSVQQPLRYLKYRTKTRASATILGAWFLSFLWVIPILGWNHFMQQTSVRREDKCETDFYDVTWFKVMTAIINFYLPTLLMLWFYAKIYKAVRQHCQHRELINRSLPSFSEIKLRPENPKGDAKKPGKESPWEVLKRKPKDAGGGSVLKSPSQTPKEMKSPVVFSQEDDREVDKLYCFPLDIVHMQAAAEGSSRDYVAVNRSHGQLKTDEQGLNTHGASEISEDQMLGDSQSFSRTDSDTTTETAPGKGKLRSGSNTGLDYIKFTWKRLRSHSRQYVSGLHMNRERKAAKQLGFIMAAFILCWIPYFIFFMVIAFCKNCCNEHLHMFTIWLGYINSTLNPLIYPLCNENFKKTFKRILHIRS

Row | SMILES | anti-inflammatory cytokine IL-10 level in plasma (IL-10) | LPS-induced IL-1α level in plasma (IL-1α; 2 hours post-LPS injection) | LPS-induced IL-1α level in plasma (IL-1α; 6 hours post-LPS injection) | LPS-induced NF-κB reporter (fold change from 0 hour), Example 1 (NF-κB [1]; after 2 hours) | LPS-induced NF-κB reporter (fold change from 0 hour), Example 1 (NF-κB [1]; after 6 hours) | LPS-induced NF-κB activation, Example 2 (FIG. 2) (NF-κB [1]; early time point (2 hours) post-LPS) | LPS-induced NF-κB activation, Example 2 (FIG. 2) (NF-κB [1]; later time points (4, 6, 24 hours imaged) post-LPS) | IC50 (5-HT2A; read-out: affinity (IC50) for 5-HT2A) [nM] | CdCl2-induced luciferase expression (HO-1 promoter) (HO-1 promoter; 1 or 10 mg/kg p.o. one hour prior to CdCl2 2 mg/kg i.v., whole body images at 4, 6, 24 hours) | CdCl2-induced luciferase expression (HO-1 promoter), mid back region (HO-1 promoter; mid back region, all time points (4, 6, 24 hours)) | CdCl2-induced luciferase expression (HO-1 promoter), sublingual and lower back regions (HO-1 promoter; sublingual and lower back regions, earlier time points) | LPS-induced TNF-α level in plasma (TNF-α) | affinity for histamine H1 receptor, in words (histamine H1 receptor) | LPS-induced NF-κB activation in harvested tissues (units of light/μg protein, normalized) (NF-κB [2]) | TPA-induced AP-1 activation in skin (AP-1) | IL-13 levels in plasma compared to vehicle (IL-13) | LPS-induced eotaxin level in plasma (eotaxin) | CXCL1 (GRO/KC) levels in plasma (CXCL1 (GRO/KC)) | affinity for adrenergic receptor al, in words (adrenergic receptor al) | 5-HT2A affinity, in words (5-HT2A; compared with irindalone)
1 | O=C1NCCN1CCN1CCN([C@@H]2C[C@@H](c3ccc(F)cc3)c3ccccc32)CC1 [Irindalone, (+)-(1R,3S)-1-[2-[4-[3-(p-fluorophenyl)-1-indanyl]-1-piperazinyl]-ethyl]-2-imidazolidinone] | increase | suppressed | suppressed | broad suppression | broad enhancement | suppression | enhancement | 3.4 | suppressed | Dramatic suppression | Dramatic suppression | suppressed | somewhat weaker affinity | Tissue-Selective Effect | dramatically repressed | increased | suppressed | lowered | somewhat weaker affinity | 
2 | O=C1NCCN1CCN1CCN([C@H]2C[C@H](c3ccc(F)cc3)c3ccccc32)CC1 [Lu 21-099] |  |  |  |  |  |  |  |  |  |  |  |  |  |  |  |  |  |  |  | weaker 5-HT2A affinity
